Experimental data as given in ChEMBL document CHEMBL5331124, “Degradation of Hexokinase 2 Blocks Glycolysis and Induces GSDME-Dependent Pyroptosis to Amplify Immunogenic Cell Death for Breast Cancer Therapy” (J Med Chem, 2023).
The source made the active and inactive calls. The calls are words filed in the database; no cut-off is given here.

Tests used:
[1] = Toxicity in BALB/c mouse implanted with mouse 4T1 cells assessed as effect on mean corpuscular volume at 50 mg/kg, ip measured after 25 days in presence of cisplatin by routine blood test; type: organism-based; settings: in vivo, 600 h, time 25 day
4T1 [2] = assay: Antitumor immunity against mouse 4T1 cells implanted in BALB/c mouse model assessed as increase in CRT accumulation in tumor; type: functional, cell-based
[3] = Toxicity in BALB/c mouse implanted with mouse 4T1 cells assessed as colon damage at 50 mg/kg, ip measured after 25 days in presence of cisplatin by H and E staining based analysis; type: organism-based; settings: in vivo, 600 h, time 25 day
4T1 [4] = assay: Antitumor immunity against mouse 4T1 cells implanted in BALB/c mouse model assessed as decrease in PD-L1 protein expression in tumor; type: functional, cell-based
786-0 = assay: Antiproliferative activity against human 786-0 cells assessed as cell growth inhibition measured for 72 hrs by MTT assay; type: functional, cell-based; settings: 786-0, 72 h
[5] = Toxicity in BALB/c mouse implanted with mouse 4T1 cells assessed as effect on hematocrit level at 50 mg/kg, ip measured after 25 days by routine blood test; type: organism-based; settings: in vivo, 600 h, time 25 day
4T1 [6] = assay: Downregulation of PD-L1 expression in mouse 4T1 cells membrane at 20 uM measured for 36 hrs; type: functional, cell membranes
[7] = Toxicity in BALB/c mouse implanted with mouse 4T1 cells assessed as pathological changes in kidney at 50 mg/kg, ip measured after 25 days in presence of cisplatin by Hematoxylin -eosin staining based analysis; type: organism-based; settings: in vivo, 600 h, time 25 day
MDA-MB-231 = assay: Induction of pyroptosis in human MDA-MB-231 cells assessed as increase in cleaved caspase-3 level level at 20 uM incubated for 36 hrs by Western blot analysis; type: functional, cell-based
[8] = Toxicity in BALB/c mouse implanted with mouse 4T1 cells assessed as effect on mean corpuscular hemoglobin at 50 mg/kg, ip measured after 25 days in presence of cisplatin by routine blood test; type: organism-based; settings: in vivo, 600 h, time 25 day
[9] = target: T1, Hexokinase-2 (Mus musculus) (UniProt O08528); assay: Induction of HK2 degradation in mouse 4T1 cells at 20 uM measured for 36 hrs by Western blot analysis relative to control; type: cell-based
T1 sequence (whole entry): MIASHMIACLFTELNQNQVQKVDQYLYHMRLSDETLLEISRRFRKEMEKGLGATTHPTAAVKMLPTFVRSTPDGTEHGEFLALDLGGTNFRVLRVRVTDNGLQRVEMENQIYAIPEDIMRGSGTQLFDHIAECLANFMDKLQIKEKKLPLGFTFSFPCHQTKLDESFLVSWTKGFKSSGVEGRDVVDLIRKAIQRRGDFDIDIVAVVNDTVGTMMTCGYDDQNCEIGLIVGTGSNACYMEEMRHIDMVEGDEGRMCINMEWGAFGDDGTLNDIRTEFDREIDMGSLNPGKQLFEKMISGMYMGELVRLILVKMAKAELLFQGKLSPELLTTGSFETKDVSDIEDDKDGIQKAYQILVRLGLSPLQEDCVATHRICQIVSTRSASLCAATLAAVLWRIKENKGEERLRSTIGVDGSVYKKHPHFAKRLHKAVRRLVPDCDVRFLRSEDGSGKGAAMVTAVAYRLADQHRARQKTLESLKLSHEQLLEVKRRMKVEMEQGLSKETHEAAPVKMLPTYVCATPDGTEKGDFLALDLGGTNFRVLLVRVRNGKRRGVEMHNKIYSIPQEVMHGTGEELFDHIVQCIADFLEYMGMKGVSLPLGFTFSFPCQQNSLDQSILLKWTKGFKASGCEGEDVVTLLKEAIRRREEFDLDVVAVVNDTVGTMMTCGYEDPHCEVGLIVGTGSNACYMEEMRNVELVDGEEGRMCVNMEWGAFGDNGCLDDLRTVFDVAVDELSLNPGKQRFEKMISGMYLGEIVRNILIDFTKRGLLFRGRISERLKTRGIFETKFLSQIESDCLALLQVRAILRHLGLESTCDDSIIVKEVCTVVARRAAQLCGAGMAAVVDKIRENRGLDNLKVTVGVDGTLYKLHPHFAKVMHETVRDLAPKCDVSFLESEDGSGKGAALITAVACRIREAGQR

[10] = Toxicity in BALB/c mouse implanted with mouse 4T1 cells assessed as pathological changes in lung at 50 mg/kg, ip measured after 25 days by Hematoxylin -eosin staining based analysis; type: organism-based; settings: in vivo, 600 h, time 25 day
[11] = Toxicity in BALB/c mouse implanted with mouse 4T1 cells assessed as pathological changes in lung at 50 mg/kg, ip measured after 25 days in presence of cisplatin by Hematoxylin -eosin staining based analysis; type: organism-based; settings: in vivo, 600 h, time 25 day
[12] = target: Protein cereblon/Hexokinase-2 (Homo sapiens) (UniProt P52789+Q96SW2); assay: PROTAC activity at CRBN/HK2 in human MDA-MB-231 cells assessed as HK2 degradation at 20 uM incubated for 36 hrs; type: cell-based
[13] = target: T2, Hexokinase-2 (Homo sapiens) (UniProt P52789); assay: Induction of HK2 degradation in human MDA-MB-231 cells assessed as increase in Bax expression at 20 uM measured for 36 hrs by Western blot analysis; type: cell-based
T2 sequence (whole entry): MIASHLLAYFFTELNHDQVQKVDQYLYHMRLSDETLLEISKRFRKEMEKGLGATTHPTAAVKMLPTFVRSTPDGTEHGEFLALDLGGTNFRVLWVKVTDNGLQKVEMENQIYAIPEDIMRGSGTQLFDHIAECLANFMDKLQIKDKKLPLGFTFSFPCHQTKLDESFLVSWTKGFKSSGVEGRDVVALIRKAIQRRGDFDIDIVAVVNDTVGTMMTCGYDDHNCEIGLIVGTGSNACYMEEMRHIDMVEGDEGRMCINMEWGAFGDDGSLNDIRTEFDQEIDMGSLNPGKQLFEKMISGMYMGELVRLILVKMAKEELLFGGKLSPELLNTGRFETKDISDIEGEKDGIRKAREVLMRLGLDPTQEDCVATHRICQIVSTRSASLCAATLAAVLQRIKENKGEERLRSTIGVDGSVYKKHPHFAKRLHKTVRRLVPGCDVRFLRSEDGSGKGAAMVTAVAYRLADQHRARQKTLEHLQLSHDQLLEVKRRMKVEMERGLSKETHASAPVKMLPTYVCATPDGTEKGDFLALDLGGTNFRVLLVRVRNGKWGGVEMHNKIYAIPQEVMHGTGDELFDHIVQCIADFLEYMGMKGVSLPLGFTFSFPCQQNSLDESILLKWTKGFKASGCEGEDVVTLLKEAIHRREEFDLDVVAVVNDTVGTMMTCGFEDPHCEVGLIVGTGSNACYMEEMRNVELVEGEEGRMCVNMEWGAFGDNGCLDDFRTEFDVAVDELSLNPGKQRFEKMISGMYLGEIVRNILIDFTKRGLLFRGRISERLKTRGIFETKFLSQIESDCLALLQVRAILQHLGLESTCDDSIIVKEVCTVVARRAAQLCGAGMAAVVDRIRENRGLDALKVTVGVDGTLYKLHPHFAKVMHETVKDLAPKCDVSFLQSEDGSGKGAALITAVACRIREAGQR

4T1 [14] = assay: Induction of mitochondrial damage in mouse 4T1 cells assessed as increase in ROS generation at 20 uM measured for 36 hrs by Hoechst 33342 staining based confocal fluorescence microscopic analysis; type: functional, cell-based

Protein cereblon/Hexokinase-2 (Homo sapiens), sequence (Q96SW2 whole entry, looked up, one chain of several): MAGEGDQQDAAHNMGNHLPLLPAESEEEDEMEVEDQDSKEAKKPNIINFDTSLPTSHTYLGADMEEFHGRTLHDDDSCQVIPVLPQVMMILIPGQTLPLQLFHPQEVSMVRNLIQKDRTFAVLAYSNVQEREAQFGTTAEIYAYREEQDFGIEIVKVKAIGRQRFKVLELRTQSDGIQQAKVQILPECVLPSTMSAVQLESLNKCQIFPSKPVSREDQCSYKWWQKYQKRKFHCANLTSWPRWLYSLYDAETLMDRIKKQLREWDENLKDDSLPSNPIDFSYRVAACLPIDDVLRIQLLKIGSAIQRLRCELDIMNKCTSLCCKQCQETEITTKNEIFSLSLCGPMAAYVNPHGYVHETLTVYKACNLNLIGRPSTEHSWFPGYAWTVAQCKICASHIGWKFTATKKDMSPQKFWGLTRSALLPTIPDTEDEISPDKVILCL

Compound: O=C1CCC(N2C(=O)c3cccc(NCCCCNC(=O)c4nn(Cc5ccc(Cl)cc5Cl)c5ccccc45)c3C2=O)C(=O)N1 (stereo unspecified)
- Activity [1]: Non-Toxic
- Activity (4T1 [2]): Active
- Activity [3]: Non-Toxic
- Activity (4T1 [4]): Active
- IC50 (786-0): 34.1 µM
- Activity [5]: Non-Toxic
- Activity (4T1 [6]): Active
- Activity [7]: Non-Toxic
- Activity (MDA-MB-231): Active
- Activity [8]: Non-Toxic
- Activity [9]: 71.1%
- Activity [10]: Non-Toxic
- Activity [11]: Non-Toxic
- Activity [12]: Active
- Activity [13]: Active
- Activity (4T1 [14]): Active
